The source of these data is patent US20100093776A1, “Organic Compounds and Their Uses” (Novartis AG, priority 2006, published 2010).

For one experiment, the system named is neointima formation. To be noted: rats; cited from earlier work.
Experiment [1] has as its system RNA polymerase II CTD serine2 phosphorylation in Hep3B cells. The experiment is described as follows: H5 (Ser2) Ab High Content Screen: RNA polymerase II CTD serine2 phosphorylation Assay. It counts as cell-based. Particulars: Homo sapiens, compounds for 2 hours, H5 antibody nuclear staining. The protocol:
H5 (also referred as Ser2) Ab High Content Screen: RNA polymerase II CTD serine2 phosphorylation Assay
1. Cells are plated into 384 well plates: 30 μl of Hep3B cells (4,000 cells/30 μl) in DMEM with 3% FBS are plated into wells of a tissue culture treated clear bottomed 384 well plate. Cells are allowed to adhere during an overnight incubation.
2. Cells are treated with compounds for two hours: 10 μl of DMEM with 3% FBS is added to each well with a final concentration of DMSO equal to 1%. Cells are incubated with compounds for 2 hours.
3. Cells are fixed and permeabilized. Cells are washed with 30 mM HEPES pH=7.3 then fixed in 4% paraformaldehyde in 30 mM HEPES pH=7.3 for one hour at room temperature. The fix is removed by washing the cells with Tris buffered saline (TBS) and the cells are permeabilized by incubation in TBS with 0.5% triton X-100 for 30 minutes at room temperature. Triton is removed by washing the cells with TBS.
4. Cells are stained with H5 monoclonal antibody and nuclei are stained with Hoechst dye 33342: Block cells by incubating in TBS with 1% Bovine serum albumin (BSA) for one hour at room temperature. Incubate primary H5 Ab (1/250) overnight at 4 degrees in PBS with 1% BSA and 0.1% Tween-20. The next day wash cells with TBS. Add secondary antibody, anti-IgM labeled with cy5 (1/450), and Hoecsht dye 33342 (10 μg/ml) in TBS with 1% BSA and incubate one hour at room temperature. Wash cells with PBS.
5. Measure staining using the In-cell Analyzer system from GE Healthcare. Nuclei were located using the Hoecsht 33342 dye signal and H5 Antibody staining was quantified by measuring cy5 label. Nuclear intensity of H5 staining was plotted against the log of compound concentration for each compound and IC-50 values were calculated using the spotfire IC-50 calculator and confirmed by visual analysis.

The next experiment addresses T1, CDK1/cyclinB (Homo sapiens, UniProt P06493).
T1 construct: purchased Millipore
The experiment is described as follows: CDK1/cyclinB IMAP fluorescence polarization kinase assay. It counts as biochemical. To be noted: 52 μM ATP, two hours at room temperature. How it is done:
(§1) Kinase assays were performed on recombinant purified enzymes using the non-radioactive IMAP fluorescence polarization assay format.
(§2) Compound stocks were prepared and diluted in DMSO and were added to kinase reactions at a 1/100 dilution for a final concentration of 1% DMSO. The components were added together to final concentrations listed in the tables below and incubated for two hours at room temperature.
(§3) The reactions were stopped by addition of stop solution.
(§4) CDK9/CDK1/CDK7: final stop concentration is 1× Developer buffer (85% A/15% B), IMAP beads 1/400
(§5) The samples were allowed to incubate for one more hour at room temperature and then the fluorescence polarization was measured. The plate normalized millipolarization (mP) values were plotted against the log of compound concentration for each compound and IC50 values were calculated using the spotfire IC50 calculator and confirmed by visual analysis.
On the technique in general: Polarisation of emitted light reports the rotation of a fluorescent probe.

For another experiment, the target named is T2, CDK9/cyclinT1 (Homo sapiens, UniProt P50750).
T2 construct: purchased Millipore
T2 sequence (P50750 whole entry): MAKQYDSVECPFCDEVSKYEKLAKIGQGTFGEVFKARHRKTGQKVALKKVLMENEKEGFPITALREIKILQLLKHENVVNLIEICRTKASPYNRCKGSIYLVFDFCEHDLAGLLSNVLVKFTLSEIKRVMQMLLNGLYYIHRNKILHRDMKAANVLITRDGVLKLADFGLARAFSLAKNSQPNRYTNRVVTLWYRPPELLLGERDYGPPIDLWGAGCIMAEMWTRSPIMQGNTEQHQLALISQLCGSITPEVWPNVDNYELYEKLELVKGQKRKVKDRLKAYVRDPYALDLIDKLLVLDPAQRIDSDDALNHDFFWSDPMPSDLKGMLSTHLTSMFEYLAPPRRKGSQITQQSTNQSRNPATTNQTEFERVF
T2 sequence (O60563 whole entry partner): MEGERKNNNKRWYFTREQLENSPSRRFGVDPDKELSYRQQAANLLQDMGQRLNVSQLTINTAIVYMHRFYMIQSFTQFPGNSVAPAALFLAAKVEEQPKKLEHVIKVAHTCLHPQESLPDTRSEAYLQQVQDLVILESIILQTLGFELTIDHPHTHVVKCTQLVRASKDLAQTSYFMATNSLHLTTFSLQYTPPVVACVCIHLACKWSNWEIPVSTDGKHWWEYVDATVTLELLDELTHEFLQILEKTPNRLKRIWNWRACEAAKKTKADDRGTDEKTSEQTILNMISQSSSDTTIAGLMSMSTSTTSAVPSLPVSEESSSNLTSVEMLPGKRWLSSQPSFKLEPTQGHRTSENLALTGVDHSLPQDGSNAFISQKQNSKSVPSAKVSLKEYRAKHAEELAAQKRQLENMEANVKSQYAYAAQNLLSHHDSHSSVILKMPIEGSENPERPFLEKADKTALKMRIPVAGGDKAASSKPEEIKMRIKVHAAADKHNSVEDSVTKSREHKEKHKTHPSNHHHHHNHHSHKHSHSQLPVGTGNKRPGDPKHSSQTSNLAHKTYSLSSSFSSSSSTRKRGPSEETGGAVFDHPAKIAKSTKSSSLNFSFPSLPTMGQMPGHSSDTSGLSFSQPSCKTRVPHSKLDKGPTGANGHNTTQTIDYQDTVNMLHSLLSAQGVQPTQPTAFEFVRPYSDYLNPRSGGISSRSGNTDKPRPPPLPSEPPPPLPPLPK
As to the kind of experiment: CDK9/cyclinT1 IMAP fluorescence polarization kinase assay. It counts as biochemical. To be noted: 6 μM ATP, two hours at room temperature. How it is done:
as §1, §2, §3, §4, §5

For the next experiment, the target named is CDK4 (Homo sapiens, UniProt P11802). The experiment is described as follows: CDK4 kinase assay (IMAP fluorescence polarization). It counts as biochemical. How it is done: as §1, §2, §5
CDK4, sequence (P11802 whole entry, species assumed): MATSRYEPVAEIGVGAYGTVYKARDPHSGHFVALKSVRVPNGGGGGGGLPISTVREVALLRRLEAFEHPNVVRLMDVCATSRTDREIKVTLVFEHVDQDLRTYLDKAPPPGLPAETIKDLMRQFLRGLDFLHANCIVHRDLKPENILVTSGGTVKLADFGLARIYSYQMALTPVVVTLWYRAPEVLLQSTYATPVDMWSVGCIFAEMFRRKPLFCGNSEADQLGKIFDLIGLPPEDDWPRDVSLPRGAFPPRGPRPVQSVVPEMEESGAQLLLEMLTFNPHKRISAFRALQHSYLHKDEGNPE
CDK4, sequence (P24385 whole entry partner, species assumed): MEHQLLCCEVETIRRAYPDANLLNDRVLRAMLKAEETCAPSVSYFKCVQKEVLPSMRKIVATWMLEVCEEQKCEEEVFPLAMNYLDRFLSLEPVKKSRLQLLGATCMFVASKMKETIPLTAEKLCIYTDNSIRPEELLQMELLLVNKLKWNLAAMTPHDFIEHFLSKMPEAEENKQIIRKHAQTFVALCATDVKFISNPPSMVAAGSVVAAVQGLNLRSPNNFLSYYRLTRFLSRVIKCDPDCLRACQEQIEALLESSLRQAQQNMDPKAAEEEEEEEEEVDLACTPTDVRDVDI
In a further experiment the target is T3, CDK7/cyclinH/MAT1 (Homo sapiens, UniProt P50613).
T3 construct: purchased Millipore
T3 sequence (P50613 whole entry): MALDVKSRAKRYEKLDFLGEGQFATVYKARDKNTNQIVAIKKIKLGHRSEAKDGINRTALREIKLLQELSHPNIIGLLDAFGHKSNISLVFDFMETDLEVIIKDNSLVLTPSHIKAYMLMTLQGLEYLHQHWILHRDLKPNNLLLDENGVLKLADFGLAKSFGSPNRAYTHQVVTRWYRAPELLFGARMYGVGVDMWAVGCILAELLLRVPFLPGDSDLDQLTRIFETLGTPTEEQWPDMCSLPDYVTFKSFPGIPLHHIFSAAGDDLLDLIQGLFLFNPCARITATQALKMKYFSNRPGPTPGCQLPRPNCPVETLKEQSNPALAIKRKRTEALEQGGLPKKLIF
T3 sequence (P51946 whole entry partner): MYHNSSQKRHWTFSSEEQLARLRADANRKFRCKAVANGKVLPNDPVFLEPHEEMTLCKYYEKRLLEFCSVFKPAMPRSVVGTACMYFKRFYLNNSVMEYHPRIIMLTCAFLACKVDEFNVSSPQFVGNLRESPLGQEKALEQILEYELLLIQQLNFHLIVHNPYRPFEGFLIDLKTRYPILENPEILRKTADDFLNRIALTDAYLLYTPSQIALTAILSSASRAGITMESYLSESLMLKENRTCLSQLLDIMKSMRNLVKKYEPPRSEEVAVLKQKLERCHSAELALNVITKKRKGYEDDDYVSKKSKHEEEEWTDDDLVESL
T3 sequence (P51948 whole entry partner): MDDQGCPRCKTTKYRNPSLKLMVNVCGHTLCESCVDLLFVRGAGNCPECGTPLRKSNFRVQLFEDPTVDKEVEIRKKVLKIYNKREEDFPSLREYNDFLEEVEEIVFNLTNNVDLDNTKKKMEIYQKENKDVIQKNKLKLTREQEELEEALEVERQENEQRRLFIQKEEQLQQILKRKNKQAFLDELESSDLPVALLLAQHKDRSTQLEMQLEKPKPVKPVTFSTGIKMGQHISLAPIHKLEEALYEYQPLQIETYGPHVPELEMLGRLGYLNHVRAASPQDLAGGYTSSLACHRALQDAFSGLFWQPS
As to the kind of experiment: CDK7/cyclinH/Mat1 IMAP fluorescence polarization kinase assay. It counts as biochemical. To be noted: 8.09 μM ATP, two hours at room temperature. How it is done: as §1, §2, §3, §4, §5

The target in a further experiment is CDK5 (Homo sapiens, UniProt Q00535). The experiment is described as follows: CDK5 kinase assay (IMAP fluorescence polarization). It counts as biochemical. The protocol: as §1, §2, §5
CDK5, sequence (Q00535 whole entry, species assumed): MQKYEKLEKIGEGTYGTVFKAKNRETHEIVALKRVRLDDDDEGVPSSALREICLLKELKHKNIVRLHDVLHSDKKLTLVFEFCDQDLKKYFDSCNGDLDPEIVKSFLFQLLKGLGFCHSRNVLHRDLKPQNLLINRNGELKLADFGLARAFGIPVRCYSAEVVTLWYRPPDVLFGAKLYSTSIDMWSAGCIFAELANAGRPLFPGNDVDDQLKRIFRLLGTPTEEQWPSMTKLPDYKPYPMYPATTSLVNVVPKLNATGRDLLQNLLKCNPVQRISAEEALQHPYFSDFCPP
CDK5, sequence (Q15078 whole entry partner, species assumed): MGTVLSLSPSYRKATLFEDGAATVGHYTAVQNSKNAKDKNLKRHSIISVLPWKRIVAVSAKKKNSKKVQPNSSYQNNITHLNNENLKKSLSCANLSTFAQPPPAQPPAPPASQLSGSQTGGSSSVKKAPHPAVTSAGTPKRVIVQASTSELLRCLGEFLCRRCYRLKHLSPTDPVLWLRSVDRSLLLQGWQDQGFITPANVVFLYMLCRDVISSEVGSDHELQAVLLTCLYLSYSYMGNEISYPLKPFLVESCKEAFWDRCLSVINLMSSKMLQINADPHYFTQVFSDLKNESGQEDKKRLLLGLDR
The next experiment deals with T4, CDK2/cyclinA (Homo sapiens, UniProt P24941).
T4 construct: purchased Millipore
The experiment is described as follows: CDK2/cyclinA IMAP fluorescence polarization kinase assay. It counts as biochemical. To be noted: 4.68 μM ATP, two hours at room temperature. The protocol:
as §1, §2, §3
CDK2: final stop concentration is 1× Developer buffer (100% A), IMAP beads 1/400
as §5

SMILES strings stand for the structures. Some results are limits rather than exact numbers.

T1 sequence (P06493 whole entry): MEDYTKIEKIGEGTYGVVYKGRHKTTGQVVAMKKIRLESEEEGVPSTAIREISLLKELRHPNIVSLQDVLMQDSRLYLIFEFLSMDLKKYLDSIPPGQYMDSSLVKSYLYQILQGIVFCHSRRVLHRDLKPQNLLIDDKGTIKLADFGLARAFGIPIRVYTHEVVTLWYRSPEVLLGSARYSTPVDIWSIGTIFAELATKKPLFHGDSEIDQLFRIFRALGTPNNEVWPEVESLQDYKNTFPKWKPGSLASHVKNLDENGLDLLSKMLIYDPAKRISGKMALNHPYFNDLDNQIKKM
T1 sequence (P14635 whole entry partner): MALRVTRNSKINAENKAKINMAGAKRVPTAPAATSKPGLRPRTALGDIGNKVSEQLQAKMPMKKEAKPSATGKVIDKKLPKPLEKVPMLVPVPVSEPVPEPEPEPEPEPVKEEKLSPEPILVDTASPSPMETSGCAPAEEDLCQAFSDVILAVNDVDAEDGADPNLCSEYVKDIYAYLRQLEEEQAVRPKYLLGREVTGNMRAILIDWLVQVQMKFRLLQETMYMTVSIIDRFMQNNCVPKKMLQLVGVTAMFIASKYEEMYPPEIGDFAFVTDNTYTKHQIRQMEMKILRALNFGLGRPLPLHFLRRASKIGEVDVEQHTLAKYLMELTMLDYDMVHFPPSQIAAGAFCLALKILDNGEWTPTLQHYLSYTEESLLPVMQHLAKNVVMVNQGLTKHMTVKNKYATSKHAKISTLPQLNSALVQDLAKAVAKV

With `COc1ccc(CNc2nc(N(CCO)CCO)nc3c2ncn3C(C)C)cc1` [CVT-313], the “inhibition of neointima formation” value with neointima formation is “greater than 80%”.

For `Clc1cccc(Nc2nccc(-c3cccc4[nH]ccc34)n2)c1` [Compound 1, (3-Chloro-phenyl)-[4-(1H-indol-4-yl)-pyrimidin-2-yl]-amine], the IC50 in experiment [1] was < 5 µM; at CDK1/cyclinB, < 5 µM; on CDK9/cyclinT1 it was < 5 µM; against CDK4, 5 to 15 µM; against CDK7/cyclinH/MAT1, > 50 µM; on CDK5, < 5 µM.

On to `CS(=O)(=O)c1cccc(Nc2nccc(-c3cccc4[nH]ccc34)n2)c1` [Compound 2, [4-(1H-Indol-4-yl)-pyrimidin-2-yl]-(3-methanesulfonyl-phenyl)-amine], for which the IC50 (in experiment [1]; at CDK2/cyclinA; on CDK1/cyclinB; against CDK9/cyclinT1; against CDK4; on CDK7/cyclinH/MAT1) was < 5 µM each time. Moreover, at CDK5, the IC50 was < 5 µM.

Consider `CCNC(=O)Cn1ccc2c(-c3ccnc(Nc4cccc(Cl)c4)n3)cccc21` [Compound 13, 2-{4-[2-(3-Chloro-phenylamino)-pyrimidin-4-yl]-indol-1-yl}-N-ethyl-acetamide], for which the IC50 in experiment [1] was < 5 µM; against CDK1/cyclinB it was > 50 µM; at CDK9/cyclinT1 it was < 5 µM; at CDK7/cyclinH/MAT1, > 50 µM.

Consider `Cc1cnc(Nc2cccc(S(C)(=O)=O)c2)nc1-c1cccc2[nH]ccc12` [Compound 31, [4-(1H-Indol-4-yl)-5-methyl-pyrimidin-2-yl]-(3-methanesulfonyl-phenyl)-amine], for which the IC50 in experiment [1] is < 5 µM; against CDK2/cyclinA, < 5 µM; on CDK1/cyclinB, < 5 µM; against CDK9/cyclinT1, < 5 µM; on CDK4 it was 5 to 15 µM; against CDK7/cyclinH/MAT1, < 5 µM. Further, on CDK5, the IC50 was < 5 µM.

Regarding `Cc1cnc(Nc2cccc(S(N)(=O)=O)c2)nc1-c1cccc2[nH]ccc12` [Compound 32, 3-[4-(1H-Indol-4-yl)-5-methyl-pyrimidin-2-ylamino]-benzenesulfonamide], the IC50 against CDK2/cyclinA, on CDK1/cyclinB, at CDK9/cyclinT1, at CDK4 and at CDK5 was < 5 µM throughout.

Regarding `Cc1ccc2[nH]ccc2c1-c1ccnc(Nc2cccc(S(C)(=O)=O)c2)n1` [Compound 35, (3-Methanesulfonyl-phenyl)-[4-(5-methyl-1H-indol-4-yl)-pyrimidin-2-yl]-amine], the IC50 on CDK2/cyclinA was < 5 µM; at CDK1/cyclinB, < 5 µM; against CDK9/cyclinT1, < 5 µM; against CDK4, 5 to 15 µM; against CDK5 it was < 5 µM.

Usually IC50 stands for the concentration needed to halve the response being measured. A high value points to a need for much substance.
